Assay results: patent US7879347B2, “Dihydroxyphenyl compounds and glucoside compounds thereof” (KAO Corporation, priority 2001, dated 2011)

Columns and labels:
[1] = system: Free fatty cells from epididymis fatty tissues; test: Determination of lypolytic activity in free fatty cells; format: cell-based, Wister male rats; details: for degree of lypolysis promotion (%): 100 μg/ml test compound, 0.05 μg/ml norepinephrine, 37° C., 1 hour, fatty acids relative to control solution without compound (=100)
Procedure: The cells were added to a Hank's balanced solution containing 0.05 μg/ml of bovine serum albumin, 0.05 μg/ml of norepinephrine and 100 μg/ml of the present compound to be tested, and then allowed to react at 37° C. for 1 hour. Liberated fatty acids were extracted and quantitated with a copper reagent and a color developing reagent. Lypolytic activity was calculated according to the following equation. Lypolytic activity(%)=[A/B]×100, wherein A: amount of fatty acids in a sample solution, and B: that in a control solution without present compound. Subcutaneous Fat Decomposition Test

[2] = Anti-oxidation test (UV-induced peroxide formation); parameters: unit not given here; details: 0.005 g compound in 1 ml methyl linolate
Description: Comparative test on raspberry ketone was made in the same manner as above.

B16 melanoma cells = test: Melanogenesis inhibition test; format: cell-based; details: 72 hours; for Amount of melanin per cell (%): Theophylline containing medium, relative to blank
Procedure: B16 melanoma cells were inoculated in a 12 wells-plastic plate at a concentration of 2×10^4/well on MEM (Minimum Essential Medium). After 24 hours, the medium was changed to a Theophylline containing medium to which 4-(3′,4′-dihydroxyphenyl)-butane-2-one was added in the concentrations shown in Table 6. The cells were cultured for 72 hours and then treated with 10% TCA and ethanol/diethylether(=1/1). After counting the number of the cells, the cells were dissolved in an aqueous 1 mol/l sodium hydroxide solution containing dimethylsulfoxide in a concentration of 10%. Optical density at 475 nm (OD475) of the solution thus obtained was measured.

| Structure (SMILES) | degree of lypolysis promotion (%) [1] | amount of peroxides formed by oxidation of methyl linolate ([2]; UVB 10 (J/cm^2)) | amount of peroxides formed by oxidation of methyl linolate ([2]; UVB 30 (J/cm^2)) | lypolytic activity compared with raspberry ketone of Comparative Example 1 ([1]; comparison in words) | Amount of melanin per cell (%) (B16 melanoma cells; concentration 1 μg/l) | Amount of melanin per cell (%) (B16 melanoma cells; concentration 3 μg/l) | Amount of melanin per cell (%) (B16 melanoma cells; concentration 10 μg/l) | Amount of melanin per cell (%) (B16 melanoma cells; concentration 30 μg/l) | numbers of the cells (B16 melanoma cells; concentration range of Table 6 (up to 30 μg/l)) |
| --- | --- | --- | --- | --- | --- | --- | --- | --- | --- |
| CC(=O)CCc1ccc(O)cc1 [Raspberry ketone, reference compound] | 142.0 +/− 6.8% | 30.2 | 42.5 | – | – | – | – | – | – |
| CC(=O)CCc1ccc(O)c(O)c1 [4-(3′,4′-dihydroxyphenyl)-butane-2-one] | 194.3 +/− 12.4% | 1.6 | 3.7 | significantly higher | 94.7 | 77.2 | 62.7 | 2.2 | no difference |
